Some test systems named below: ACHN; HL-60; HOP-92; K562; LOX IMVI; RXF 393; SF-295; SK-MEL-2; SK-OV-3; SR; SW-620; U-251; UACC-257; CAKI-1; Malme-3M; RPMI-8226; SN12C.
Holding throughout (experiment): NCI-60 cell line screen, 48 h

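Growth conditions: 96-well plates. Treatment: test compound, 48 hours, 5 concentrations. Analysis: linear interpolation between bracketing concentrations; unreached endpoints set to highest concentration. GI50: concentration for 50% inhibition of growth.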 Activity calls are given as the source filed them. Rule as the data show it: active = GI50 up to about 1.1 µM and inactive = higher. Some results are limits rather than exact numbers.

As to `Cc1ccc(NC(=O)CC/C(CC(=O)C(C)(C)C)=N\Nc2ccc([N+](=O)[O-])cc2[N+](=O)[O-])cc1C`, the GI50 is 45.8 µM (inactive) in the assay on ACHN; > 10 µM (inactive) in the assay on HL-60; 27 µM (inactive) with HOP-92; 28.3 µM (inactive) in the assay with K562; 31.6 µM (inactive) in the assay on LOX IMVI; 67.5 µM (inactive) with RXF 393. Further, the GI50 is 32.6 µM (inactive) in the assay on SF-295; 76.4 µM (inactive) in the assay with SK-MEL-2; > 100 µM (inactive) in the assay on SK-OV-3; 39.7 µM (inactive) in the assay with SR; 46.3 µM (inactive) in the assay on SW-620; 58.1 µM (inactive) in the assay with U-251. For the same compound, the GI50 in the assay on UACC-257 is > 100 µM (inactive).
`COc1cc(C2C(Cl)C(=O)N2NC(=O)Cc2ccccc2)ccc1O` (stereo not given): the GI50 with ACHN was 93.5 µM (inactive); in the assay with CAKI-1, > 100 µM (inactive); with HL-60 it was 28.1 µM (inactive); in the assay with K562, 35.2 µM (inactive); with LOX IMVI, 77.4 µM (inactive); in the assay on Malme-3M, > 100 µM (inactive). Further, the GI50 in the assay with RPMI-8226 was 32.6 µM (inactive); with RXF 393, 59 µM (inactive); in the assay on SF-295, > 100 µM (inactive); with SK-MEL-2, > 100 µM (inactive); with SK-OV-3, > 100 µM (inactive); with SN12C, > 100 µM (inactive). For the same compound, the GI50 in the assay with SR is 18.3 µM (inactive); in the assay on SW-620, 68.4 µM (inactive); in the assay on U-251, 79.3 µM (inactive); in the assay on UACC-257, > 100 µM (inactive).
`N#CC(c1ccccn1)c1nc2ccccc2[nH]1` (stereo not given): the GI50 with ACHN is > 100 µM (inactive); in the assay with CAKI-1, > 100 µM (inactive); in the assay on HL-60 it was 32.3 µM (inactive); in the assay with K562, > 100 µM (inactive); with Malme-3M, > 100 µM (inactive); in the assay on RPMI-8226 it was 54 µM (inactive). The GI50 is > 100 µM (inactive) in the assay on SF-295; > 100 µM (inactive) with SK-MEL-2; > 100 µM (inactive) with SK-OV-3; > 100 µM (inactive) in the assay with SN12C; 38.5 µM (inactive) in the assay with SR; > 100 µM (inactive) in the assay with SW-620. Also, the GI50 with U-251 and in the assay with UACC-257 was > 100 µM (inactive) throughout.
For `Cc1ccccc1NC(=O)/C=N/O`, the GI50 in the assay on ACHN is > 100 µM (inactive); with CAKI-1, > 100 µM (inactive); in the assay with HL-60, 0.429 µM (active); with K562, > 100 µM (inactive); with LOX IMVI, > 100 µM (inactive); with Malme-3M, > 100 µM (inactive). Moreover, the GI50 in the assay on RPMI-8226, with RXF 393, in the assay on SF-295, in the assay on SK-MEL-2, with SK-OV-3 and in the assay with SN12C was > 100 µM (inactive) throughout. Besides, the GI50 with SR, in the assay on SW-620, with U-251 and with UACC-257 was > 100 µM (inactive) throughout.
With `O=C1C(Cl)C(c2ccccc2O)N1n1cnc2ccccc2c1=O` (stereo not given), the GI50 in the assay with ACHN was 39.4 µM (inactive); in the assay on CAKI-1, 37.8 µM (inactive); in the assay with HL-60, 13 µM (inactive); with K562, 58.1 µM (inactive); with LOX IMVI, 61 µM (inactive); with Malme-3M it was 75.3 µM (inactive). Moreover, the GI50 with RPMI-8226 was 6.75 µM (inactive); with RXF 393, 22.7 µM (inactive); in the assay with SF-295, 53.6 µM (inactive); with SK-MEL-2, > 100 µM (inactive); in the assay on SK-OV-3, 25.1 µM (inactive); with SN12C, 7.08 µM (inactive). For the same compound, the GI50 was 27.4 µM (inactive) in the assay with SR, 58.7 µM (inactive) in the assay with SW-620, 43.3 µM (inactive) with U-251 and 46.7 µM (inactive) in the assay on UACC-257.

The record behind these values is ChEMBL document CHEMBL1201862, “PubChem BioAssay data set” (2004).
